Results as given in patent US10239844B2, “Disubstituted triazole analogs” (BioVentures, LLC, priority 2014, dated 2019).

Tests used:
Format in all cases: cell-based, human
SK-MEL-2 = experiment: NCI 60 panel five-dose growth inhibition, Melanoma; settings: SK-MEL-2, Melanoma
SNB-75 = experiment: NCI 60 panel five-dose growth inhibition, CNS Cancer; settings: Homo sapiens; SNB-75, CNS Cancer
MOLT-4 = experiment: NCI 60 panel five-dose growth inhibition, Leukemia; settings: MOLT-4, Leukemia
K-562 = experiment: NCI 60 panel five-dose growth inhibition, Leukemia; settings: K-562, Leukemia
MCF7 = experiment: NCI 60 panel five-dose growth inhibition, Breast Cancer
MDA-MB-468 = experiment: as above; settings: MDA-MB-468, Breast Cancer
HOP-92 = experiment: NCI 60 panel five-dose growth inhibition, Non-Small Cell Lung Cancer; settings: HOP-92, Non-Small Cell Lung Cancer
SF-295 = experiment: NCI 60 panel five-dose growth inhibition, CNS Cancer; settings: SF-295, CNS Cancer
LOX IMVI = experiment: NCI 60 panel five-dose growth inhibition, Melanoma
5K-MEL-5 = experiment: NCI 60 panel five-dose growth inhibition, Melanoma; settings: 5K-MEL-5, Melanoma
NCI-H460 = experiment: NCI 60 panel five-dose growth inhibition, Non-Small Cell Lung Cancer
SF-539 = experiment: NCI 60 panel five-dose growth inhibition, CNS Cancer; settings: SF-539, CNS Cancer
COLO 205 = experiment: NCI 60 panel five-dose growth inhibition, Colon Cancer; settings: COLO 205, Colon Cancer
CCRF-CEM = experiment: NCI 60 panel five-dose growth inhibition, Leukemia
786-0 = experiment: NCI 60 panel five-dose growth inhibition, Renal Cancer; settings: 786-0, Renal Cancer
KM12 = experiment: NCI 60 panel five-dose growth inhibition, Colon Cancer
1-ICT-15 = experiment: as above; settings: 1-ICT-15, Colon Cancer
PC-3 = experiment: NCI 60 panel five-dose growth inhibition, Prostate Cancer; settings: PC-3, Prostate Cancer
U251 = experiment: NCI 60 panel five-dose growth inhibition, CNS Cancer
HCC-2998 = experiment: NCI 60 panel five-dose growth inhibition, Colon Cancer; settings: HCC-2998, Colon Cancer
HT29 = experiment: as above
SF-268 = experiment: NCI 60 panel five-dose growth inhibition, CNS Cancer; settings: SF-268, CNS Cancer
U0-31 = experiment: NCI 60 panel five-dose growth inhibition, Renal Cancer; settings: U0-31, Renal Cancer
OVCA R-3 = experiment: NCI 60 panel five-dose growth inhibition, Ovarian Cancer; settings: OVCA R-3, Ovarian Cancer
OVCAR-4 = experiment: as above; settings: OVCAR-4, Ovarian Cancer
HCT-116 = experiment: NCI 60 panel five-dose growth inhibition, Colon Cancer; settings: HCT-116, Colon Cancer
CAKI-1 = experiment: NCI 60 panel five-dose growth inhibition, Renal Cancer; settings: CAKI-1, Renal Cancer
SNB-19 = experiment: NCI 60 panel five-dose growth inhibition, CNS Cancer; settings: SNB-19, CNS Cancer
IGROV1 = experiment: NCI 60 panel five-dose growth inhibition, Ovarian Cancer
M14 = experiment: NCI 60 panel five-dose growth inhibition, Melanoma
A549/ATCC = experiment: NCI 60 panel five-dose growth inhibition, Non-Small Cell Lung Cancer
SW-620 = experiment: NCI 60 panel five-dose growth inhibition, Colon Cancer; settings: SW-620, Colon Cancer
MDA-MB-435 = experiment: NCI 60 panel five-dose growth inhibition, Melanoma; settings: Homo sapiens; MDA-MB-435, Melanoma
RPMI-8226 = experiment: NCI 60 panel five-dose growth inhibition, Leukemia; settings: RPMI-8226, Leukemia
SK-MEL-28 = experiment: NCI 60 panel five-dose growth inhibition, Melanoma; settings: SK-MEL-28, Melanoma
HOP-62 = experiment: NCI 60 panel five-dose growth inhibition, Non-Small Cell Lung Cancer; settings: HOP-62, Non-Small Cell Lung Cancer

COc1cc(-c2n[nH]nc2-c2ccc3c(c2)OCCO3)cc(OC)c1OC [Example 7, 4-(2,3-dihydrobenzo[b][1,4]dioxin-6-yl)-5-(3,4,5-trimethoxyphenyl)-2H-1,2,3-triazole]
GI50 (SK-MEL-2; Homo sapiens): 23.6 nM
TGI (SK-MEL-2): 55700 nM
GI50 (SNB-75): 82.4 nM
GI50 (MOLT-4; Homo sapiens): 572 nM
TGI (MOLT-4): 51800 nM
GI50 (K-562; Homo sapiens, K562): 49.6 nM
TGI (K-562): >100000 nM
TGI (MCF7): >100000 nM
GI50 (MCF7; Homo sapiens): 76.8 nM
GI50 (MDA-MB-468; Homo sapiens): 226 nM
TGI (MDA-MB-468): 25800 nM
TGI (HOP-92): 1590 nM
GI50 (HOP-92; Homo sapiens): 122 nM
GI50 (SF-295; Homo sapiens): 98.9 nM
TGI (SF-295): 3610 nM
TGI (LOX IMVI): 87100 nM
GI50 (LOX IMVI; Homo sapiens): 545 nM
TGI (5K-MEL-5): 11900 nM
GI50 (5K-MEL-5; Homo sapiens): > 1000 nM
TGI (NCI-H460): 28700 nM
GI50 (NCI-H460; Homo sapiens): 335 nM
GI50 (SF-539; Homo sapiens): 181 nM
TGI (SF-539): 540 nM
TGI (COLO 205): 1300 nM
GI50 (COLO 205; Homo sapiens): 311 nM
TGI (CCRF-CEM): >100000 nM
GI50 (CCRF-CEM; Homo sapiens): 282 nM
TGI (786-0): 63500 nM
GI50 (786-0; Homo sapiens): 618 nM
TGI (KM12): 11900 nM
GI50 (KM12; Homo sapiens): 70 nM
TGI (1-ICT-15): >100000 nM
GI50 (1-ICT-15; Homo sapiens): 125 nM
GI50 (PC-3; Homo sapiens): 255 nM
TGI (PC-3): 43700 nM
TGI (U251): 11200 nM
GI50 (U251; Homo sapiens, U-251): 302 nM
TGI (HCC-2998): 24600 nM
GI50 (HCC-2998; Homo sapiens): > 1000 nM
TGI (HT29): 12500 nM
GI50 (HT29; Homo sapiens, HT-29): 392 nM
GI50 (SF-268; Homo sapiens): > 1000 nM
TGI (SF-268): >100000 nM
GI50 (U0-31; Homo sapiens): 661 nM
TGI (U0-31): 72700 nM
GI50 (OVCA R-3; Homo sapiens, OVCAR-3): 432 nM
TGI (OVCA R-3): 370 nM
GI50 (OVCAR-4; Homo sapiens): 76.3 nM
TGI (OVCAR-4): >100000 nM
TGI (HCT-116): 15600 nM
GI50 (HCT-116; Homo sapiens): 181 nM
TGI (CAKI-1): >100000 nM
GI50 (CAKI-1; Homo sapiens): 316 nM
GI50 (SNB-19; Homo sapiens): 501 nM
TGI (SNB-19): >100000 nM
TGI (IGROV1): >100000 nM
GI50 (IGROV1; Homo sapiens, IGROV-1): > 1000 nM
TGI (M14): 12000 nM
TGI (A549/ATCC): 50900 nM
GI50 (A549/ATCC; Homo sapiens): 289 nM
GI50 (SW-620; Homo sapiens): 105 nM
TGI (SW-620): >100000 nM
GI50 (MDA-MB-435): 94.8 nM
GI50 (RPMI-8226; Homo sapiens): 326 nM
TGI (RPMI-8226): 22100 nM
GI50 (SK-MEL-28; Homo sapiens): 244 nM
TGI (SK-MEL-28): 43500 nM
TGI (HOP-62): >100000 nM
GI50 (HOP-62; Homo sapiens): 336 nM
